Data reported in ChEMBL document CHEMBL1159050, “2-Arylbenzoxazoles as CETP inhibitors: substitution and modification of the alpha-alkoxyamide moiety” (Bioorg Med Chem Lett, 2010).
One block for each compound: values may come before it.

Key:
[1] = molecular target: T1, Cholesteryl ester transfer protein (Homo sapiens, UniProt P11597); test: Inhibition of CETP assessed as cholesteryl ester transfer activity
T1 sequence (P11597 whole entry): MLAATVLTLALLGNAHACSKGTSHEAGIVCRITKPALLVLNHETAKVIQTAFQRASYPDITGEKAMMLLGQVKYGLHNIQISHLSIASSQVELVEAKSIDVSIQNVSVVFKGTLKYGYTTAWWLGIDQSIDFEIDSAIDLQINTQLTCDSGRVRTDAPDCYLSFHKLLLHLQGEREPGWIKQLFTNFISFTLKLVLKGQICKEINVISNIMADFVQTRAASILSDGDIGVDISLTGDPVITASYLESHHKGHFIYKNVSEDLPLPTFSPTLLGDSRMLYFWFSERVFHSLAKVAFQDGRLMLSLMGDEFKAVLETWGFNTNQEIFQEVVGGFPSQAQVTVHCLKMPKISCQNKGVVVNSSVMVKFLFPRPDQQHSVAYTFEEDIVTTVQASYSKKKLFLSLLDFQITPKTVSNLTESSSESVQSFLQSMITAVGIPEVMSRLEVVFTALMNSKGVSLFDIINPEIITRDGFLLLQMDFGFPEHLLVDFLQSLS

[2] = Oral bioavailability in mouse; assay type: ADME, organism-based; conditions: in vivo
[3] = Clearance in mouse; assay type: ADME, organism-based; conditions: in vivo
[4] = Half life in mouse; assay type: ADME, organism-based; conditions: in vivo

SMILES: O=C(Nc1ccc(-c2nc3cc(Cl)ccc3o2)cc1)OCc1ccccc1
- IC50 [1]: > 30000 nM

SMILES: COc1cccc(OCC(=O)Nc2ccc(-c3nc4cc(Cl)ccc4o3)cc2)c1
- IC50 [1]: 12900 nM

SMILES: O=C(COc1cccc([N+](=O)[O-])c1)Nc1ccc(-c2nc3cc(Cl)ccc3o2)cc1
- IC50 [1]: 26500 nM

SMILES: Cc1ccc(OCC(=O)Nc2ccc(-c3nc4cc(Cl)ccc4o3)cc2)cc1
- IC50 [1]: > 30000 nM

SMILES: O=C(CNc1ccccc1)Nc1ccc(-c2nc3cc(Cl)ccc3o2)cc1
- IC50 [1]: 8130 nM

SMILES: Cc1ccccc1OCC(=O)N(C)c1ccc(-c2nc3cc(Cl)ccc3o2)cc1
- IC50 [1]: > 30000 nM

SMILES: CC(Oc1ccccc1)C(=O)Nc1ccc(-c2nc3cc(Cl)ccc3o2)cc1 (stereo not drawn)
- IC50 [1]: > 30000 nM

SMILES: N#Cc1cccc(OCC(=O)Nc2ccc(-c3nc4cc(Cl)ccc4o3)cc2)c1
- IC50 [1]: > 30000 nM

SMILES: N#Cc1ccc(OCC(=O)Nc2ccc(-c3nc4cc(Cl)ccc4o3)cc2)cc1
- IC50 [1]: > 30000 nM

SMILES: O=C(CSc1ccccc1)Nc1ccc(-c2nc3cc(Cl)ccc3o2)cc1
- IC50 [1]: > 30000 nM

SMILES: O=C(COc1ccc(Cl)cc1)Nc1ccc(-c2nc3cc(Cl)ccc3o2)cc1
- IC50 [1]: 6810 nM

SMILES: O=C(NCc1ccccc1)Nc1ccc(-c2nc3cc(Cl)ccc3o2)cc1
- IC50 [1]: > 30000 nM

SMILES: O=C(COCc1ccccc1)Nc1ccc(-c2nc3cc(Cl)ccc3o2)cc1
- IC50 [1]: 6540 nM

SMILES: O=C(CNCc1ccccc1)Nc1ccc(-c2nc3cc(Cl)ccc3o2)cc1
- IC50 [1]: 18100 nM

SMILES: N#Cc1ccccc1OCC(=O)Nc1ccc(-c2nc3cc(Cl)ccc3o2)cc1
- IC50 [1]: > 30000 nM

SMILES: O=C(COc1ccccc1F)Nc1ccc(-c2nc3cc(Cl)ccc3o2)cc1
- IC50 [1]: > 30000 nM

SMILES: COc1ccccc1OCC(=O)Nc1ccc(-c2nc3cc(Cl)ccc3o2)cc1
- IC50 [1]: > 30000 nM

SMILES: c1ccc(OCCNc2ccc(-c3nc4ccccc4o3)cc2)cc1
- IC50 [1]: 75900 nM

SMILES: Cc1ccccc1CNC(=O)c1ccc(-c2nc3cc(Cl)ccc3o2)cc1
- IC50 [1]: > 30000 nM

SMILES: O=S(=O)(Cc1ccccc1)Nc1ccc(-c2nc3cc(Cl)ccc3o2)cc1
- IC50 [1]: > 30000 nM

SMILES: Cc1cccc(OCC(=O)Nc2ccc(-c3nc4cc(Cl)ccc4o3)cc2)c1
- IC50 [1]: 19300 nM

SMILES: O=C(CCc1ccccc1)Nc1ccc(-c2nc3cc(Cl)ccc3o2)cc1
- IC50 [1]: > 30000 nM

Next, values leading:

- IC50 [1]: 130 nM
SMILES: Cc1ccccc1OCC(=O)Nc1ccc(-c2nc3cc(C#N)ccc3o2)cc1

- IC50 [1]: 1110 nM
SMILES: Cc1ccccc1OCC(=O)Nc1ccc(-c2nc3cc(Cl)ccc3o2)cc1

- IC50 [1]: 4570 nM
SMILES: COc1ccc(OCC(=O)Nc2ccc(-c3nc4cc(Cl)ccc4o3)cc2)cc1

- bioavailability [2]: 4%
- IC50 [1]: 94 nM
SMILES: N#Cc1ccc2oc(-c3ccc(NC(=O)COC(C(F)(F)F)C(F)(F)F)cc3)nc2c1

- IC50 [1]: 51 nM
SMILES: CC(C)(OCC(=O)Nc1ccc(-c2nc3cc(C#N)ccc3o2)cc1)C(F)(F)F

- IC50 [1]: 151 nM
SMILES: N#Cc1ccc2oc(-c3ccc(NC(=O)COC(C(F)(F)F)(C(F)(F)F)C(F)(F)F)cc3)nc2c1

- IC50 [1]: 4230 nM
SMILES: O=C(COc1ccccc1)Nc1ccc(-c2nc3cc(Cl)ccc3o2)cc1

- IC50 [1]: 132 nM
SMILES: CC(C)(C)OCC(=O)Nc1ccc(-c2nc3cc(C#N)ccc3o2)cc1

- IC50 [1]: 2210 nM
SMILES: O=C(COc1ccc([N+](=O)[O-])cc1)Nc1ccc(-c2nc3cc(Cl)ccc3o2)cc1

- IC50 [1]: 44 nM
SMILES: CC(OCC(=O)Nc1ccc(-c2nc3cc(C#N)ccc3o2)cc1)(C(F)(F)F)C(F)(F)F

- IC50 [1]: 2590 nM
SMILES: CCc1ccccc1OCC(=O)Nc1ccc(-c2nc3cc(Cl)ccc3o2)cc1

- IC50 [1]: 2700 nM
SMILES: CCCc1ccccc1OCC(=O)Nc1ccc(-c2nc3cc(Cl)ccc3o2)cc1

- IC50 [1]: 6390 nM
SMILES: O=C(COc1ccccc1C(F)(F)F)Nc1ccc(-c2nc3cc(Cl)ccc3o2)cc1

- IC50 [1]: 2150 nM
SMILES: O=C(COc1ccccc1Cl)Nc1ccc(-c2nc3cc(Cl)ccc3o2)cc1

- IC50 [1]: 1990 nM
SMILES: O=C(COc1cccc(F)c1)Nc1ccc(-c2nc3cc(Cl)ccc3o2)cc1

- IC50 [1]: 1770 nM
SMILES: O=C(COc1ccc(F)cc1)Nc1ccc(-c2nc3cc(Cl)ccc3o2)cc1

- IC50 [1]: 1250 nM
SMILES: O=C(COc1cccc(Cl)c1)Nc1ccc(-c2nc3cc(Cl)ccc3o2)cc1

- IC50 [1]: 505 nM
SMILES: N#Cc1ccc2oc(-c3ccc(NC(=O)COCc4ccccc4C(F)(F)F)cc3)nc2c1

- IC50 [1]: 1380 nM
SMILES: CCOCC(=O)Nc1ccc(-c2nc3cc(C#N)ccc3o2)cc1

- IC50 [1]: 613 nM
SMILES: CC(C)OCC(=O)Nc1ccc(-c2nc3cc(C#N)ccc3o2)cc1

- IC50 [1]: 1770 nM
SMILES: O=C(COc1cccc(C(F)(F)F)c1)Nc1ccc(-c2nc3cc(Cl)ccc3o2)cc1

- bioavailability [2]: 30%
- IC50 [1]: 890 nM
SMILES: CC(C)OCCNc1ccc(-c2nc3cc(C#N)ccc3o2)cc1

- bioavailability [2]: 20%
- clearance [3]: 31 mL/min/kg
- IC50 [1]: 151 nM
- half-life [4]: 7.3 h
SMILES: CC(OCCNc1ccc(-c2nc3cc(C#N)ccc3o2)cc1)(C(F)(F)F)C(F)(F)F

- IC50 [1]: 4400 nM
SMILES: O=C(COc1ccccc1[N+](=O)[O-])Nc1ccc(-c2nc3cc(Cl)ccc3o2)cc1

- IC50 [1]: 810 nM
SMILES: O=C(COc1ccc(C(F)(F)F)cc1)Nc1ccc(-c2nc3cc(Cl)ccc3o2)cc1

- IC50 [1]: 1180 nM
SMILES: Cc1ccccc1COCC(=O)Nc1ccc(-c2nc3cc(C#N)ccc3o2)cc1
